Measured values reported in patent US9597336B2, “Therapy for treatment of chronic degenerative brain diseases and nervous system injury” (THE REGENTS OF THE UNIVERSITY OF CALIFORNIA, priority 2004, dated 2017).
Entries after “also recorded” stand apart in the source; their conditions may differ.

Experiments:
[1] = test system: Niemann Pick type-C mice; assay: Allopregnanolone, T0901317 and their combination in NP-C mice: lifespan, rotorod; format: in vivo, mouse; details: for lifespan (mean): allopregnanolone 25 mg/kg s.c. single injection at P7, T0901317 50 mg/kg/day from day 18; for onset of symptoms: rotorod trials; for age at which loss of motor function begins: untreated begin at 35 days
Experimental: (§1) The materials and methods used for the following experiments have been described in Griffin L. D., et al., Nature Medicine 10: 704-711 (2004). This reference is hereby incorporated by reference in its entirety.
Mice were given a single injection of allopregnanolone, prepared in 20% β-cyclodextrin in phosphate buffered saline, at a concentration of 25 mg/kg. The injection was on day 7 of life (P7, postnatal day 7). T0901317 treatment was started on day 18 (50 mg/kg/day) in chow. Efficacy was assessed by measuring body weight, and neurological symptoms, using a rotorod test. Efficacy was further assessed by measuring lifespan.

[2] = test system: gangliosides GM1, GM2, and GM3 in the brain; assay: Ganglioside accumulation in brain of allopregnanolone-treated Niemann Pick type-C mice; format: in vivo, mouse
Experimental: as §1
Mice were given a single injection of allopregnanolone, prepared in 20% βcyclodextrin in phosphate buffered saline, at a concentration of 25 mg/kg. The injection was on day 7 of life (P7, postnatal day 7). Concentrations of gangliosides GM1, GM2, GM3, were measured as well as other lipids such as ceramides and cerebrosides.

[3] = test system: brain cytokines (TGFβ, IL1β); assay: Brain cytokine concentrations by ELISA in NP-C mice; format: in vivo, mouse; details: adult NP-C mice treated at day 7, vs untreated NP-C mice
Experimental: as §1
(§2) Mice were again given a single injection of allopregnanolone, prepared in 20% β-cyclodextrin in phosphate buffered saline, at a concentration of 25 mg/kg. The injection was on day 7 of life (P7, postnatal day 7). Inflammation was measured by assessing the number of CD4^+ CD8^+, MAC1^+, and MHCII^+ cells, using immunocytochemistry. Concentrations of brain cytokines were also measured, using by enzyme linked immunoabsorbent (ELISA) assays.

[4] = test system: CD4+, CD8+, MAC1+ and MHCII+ cells in brain; assay: Immunocytochemistry of inflammatory cells in brains of NP-C mice; format: in vivo, mouse
Experimental: as §1, §2

[5] = test system: cerebellar astrocytes from P3 cerebella; assay: Neurotrophin secretion in cultured cerebellar astrocytes (ELISA); format: cell-based, mouse
Experimental: as §1
Pure cultures of cerebellar astrocytes from P3 cerebella were cultured for 1-3 days±10 nM allopregnanolone, and NGF was assayed every 24 hr by ELISA.

[6] = test system: Niemann Pick type-C mice; assay: Ganaxolone treatment of NP-C mice: lifespan, weight, locomotor skills; format: in vivo, mouse
Experimental: as §1
Mice were given a single injection of ganaxolone, prepared in 20% β-cyclodextrin in phosphate buffered saline, at a concentration of 25 mg/kg. The injection was on day 7 of life (P7, postnatal day 7).
Efficacy of treatment was assessed by measuring body weight, neurological symptoms, using behavioral tests such as wire hang test, rope climbing test, walking on an mesh inclined plane, and walking on a horizontal surface, measuring coordination, use of all 4 limbs, posture, tail placement. Efficacy was also assessed by measuring lifespan. Results of these experiments are summarized below, and are shown graphically in FIG. 7.

[7] = adult (60-day old) NP-C mice treated at P7

## O=S(=O)(c1ccccc1)N(CC(F)(F)F)c1ccc(C(O)(C(F)(F)F)C(F)(F)F)cc1 [T0901317]
[1]
  lifespan (mean): 80 days
  onset of symptoms: delayed
[1]; rotorod
  course of loss of motor function / decline in symptoms: blunted
  age at which loss of motor function begins: 42 days

## CC(=O)[C@H]1CC[C@H]2[C@@H]3CC[C@H]4C[C@H](O)CC[C@]4(C)[C@H]3CC[C@]12C [allopregnanolone]
[2]; NP-C mice, single injection 25 mg/kg at P7, compared with untreated controls
  amount of the gangliosides GM1, GM2, and GM3 in brain: reduced
[2]; NP-C mice, treatment at postnatal day 7 compared with postnatal day 10
  degree of reduction in the gangliosides by timing of treatment: greater reduction
[2]; [7]
  GM1 or GM2 immunostaining, cerebellum: only slight immunostaining
  GM1 or GM2 immunostaining, thalamus/hypothalamus: only very slight immunostaining
[3]
  brain cytokine concentrations (TGFβ and IL1β): substantial reduction; also recorded: substantially reduced
[4]; NP-C mice, 25 mg/kg single injection at P7
  apoptotic neurons in the brain: substantial reduction
[4]; NP-C mice, 25 mg/kg single injection at P7, vs untreated controls
  number of T cells and activated macrophages in brain: significant reduction
[4]; [7]
  increase in immunostaining for CD4 and CD8 T cells, cerebellum: absent
  increase in immunostaining for CD4 and CD8 T cells, thalamus/hypothalamus: absent
[4]; adult (60-day old) NP-C mice treated at day 7, vs untreated NP-C mice
  immunostaining for MAC1 and MHC II (activated macrophages), thalamus: substantially reduced
[5]; NP-C mouse cerebellar astrocytes cultured 1-3 days with 10 nM, vs untreated control cells
  production of NGF: increases
[5]; cerebellar cells in culture
  concentrations of the neurotrophins NGF and BDNF: increases
[1]
  lifespan (mean): 112 days
  onset of symptoms: delayed
[1]; rotorod
  age at which loss of motor function begins: 49 days

## CC(=O)[C@H]1CC[C@H]2[C@@H]3CC[C@H]4C[C@](C)(O)CC[C@]4(C)[C@H]3CC[C@]12C [ganaxolone]
[6]
  weight loss and tremor: delays
[6]; single injection 25 mg/kg at P7, untreated 67 (±10) days
  lifespan (average): 118 days
[6]; single injection at P7, untreated 3-4 weeks
  duration of the loss of motor function: 5 weeks
[6]; single injection at P7, untreated begin at 6-7 weeks
  age at which loss of motor function (locomotion and coordination) begins: 10 weeks
[6]; single injection at P7, untreated begin at 6 weeks
  age at which weight loss begins: 10 weeks
[6]; single injection at P7, vs untreated NP-C mice
  rate of weight loss: more slowly
